Like-named read-outs stand apart in the source and are kept apart here.
Tests used:
adenosine A1 receptors = target: adenosine A1 receptors; parameters: method as in Hutchison et al., 1989; conditions: ref Hutchison et al., 1989; cited from earlier work
adenosine A2A receptors = conditions: read-out: Ki for adenosine A2A receptors; ref Hutchison et al., 1989; cited from earlier work
[1] = test system: adenosine A2A receptors versus A1 receptors; conditions: cited from earlier work
[2] = test system: [3H]CGS21680 binding sites; parameters: method as in Cunha et al., 1996, 1997; conditions: ref Cunha et al., 1996, 1997, cited from earlier work
[3] = target: T1, typical adenosine A2A receptors (Rattus norvegicus, UniProt P30543); assay: [3H]CGS21680 specific binding in rat hippocampus in the presence of DPCPX (typical sites); conditions: DPCPX used to isolate typical sites
T1 sequence (P30543 whole entry): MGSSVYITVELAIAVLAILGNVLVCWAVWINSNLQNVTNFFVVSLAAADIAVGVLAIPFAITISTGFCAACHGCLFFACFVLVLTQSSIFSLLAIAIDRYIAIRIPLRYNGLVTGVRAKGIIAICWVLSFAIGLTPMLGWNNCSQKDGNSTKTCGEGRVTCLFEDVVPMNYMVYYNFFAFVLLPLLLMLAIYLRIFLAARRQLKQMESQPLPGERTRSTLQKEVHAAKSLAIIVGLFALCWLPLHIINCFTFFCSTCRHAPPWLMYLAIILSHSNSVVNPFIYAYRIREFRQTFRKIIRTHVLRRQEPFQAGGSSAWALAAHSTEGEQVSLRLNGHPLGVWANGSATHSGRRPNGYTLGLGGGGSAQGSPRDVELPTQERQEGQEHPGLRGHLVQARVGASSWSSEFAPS

[4] = target: atypical adenosine A2A receptors; assay: Displacement of [3H]CGS21680 binding in rat striatum in the presence of CSC (atypical sites)
[5] = test system: atypical adenosine A2A receptors; assay: Displacement of [3H]CGS21680 binding in rat hippocampus in the presence of CSC (atypical sites)
Description: The collected tissues were homogenized in about 25 volumes of incubation buffer and centrifuged at 40,000 g for 10 min at 4°C. The pellet was resuspended in the same fresh buffer, homogenized, centrifuged once again and the final pellet stored at −80°C until use. […] Prior to the competition binding assay, the pellet was resuspended in appropriate buffer at the wanted protein concentration and membrane suspension incubated with 5 U/ml adenosine deaminase (ADA, Sigma-Aldrich) for 30 min at 37°C to remove endogenous adenosine. The protein concentration of membrane suspension was determined using the Bradford method (Pierce, Rockford, IL, USA) with bovine albumin as standard. Competition binding experiments with [^3H]CGS21680 were performed by incubating membranes (50–100 μg of protein/sample) with a single concentrations of [^3H]CGS21680 (30 nM) for 2 h at room temperature in a solution containing 50 mM Tris-HCl, pH 7.4, 10 mM MgCl2 and 5 U/ml ADA and various concentrations (ranging from 10^−5 to 10^−12 M) of test compounds. Non-specific binding was determined in the presence of an excess of cold 2-chloroadenosine (Sigma-Aldrich). The binding reactions were stopped by vacuum filtration through GF/B filters, followed by washing of the filters with ice-cold washing buffer (same composition as the binding buffer) and filter-bound radioactivity measured by scintillation spectrometry. Competition studies were performed with the various compounds alone or in the presence of an excess of either CSC or DPCPX (both from Sigma-Aldrich). The compounds were dissolved in 100% DMSO (Sigma-Aldrich) at a concentration of 10 mM and stored at −20°C. An intermediate 100 μM working solution was prepared in water and subsequent scalar working solutions in incubation buffer.

[6] = target: T2, total adenosine A2A receptors (Rattus norvegicus, UniProt P30543); assay: Displacement of [3H]CGS21680 binding in rat striatal membranes, compounds alone (total)
T2 sequence (P30543 whole entry): as above

[7] = target: T2, total adenosine A2A receptors; assay: Displacement of [3H]CGS21680 binding in rat hippocampal membranes, compounds alone (total)
adenosine A2B receptor = conditions: cited from earlier work
[8] = target: T1, typical adenosine A2A receptors; assay: Displacement of [3H]CGS21680 binding in rat striatum in the presence of DPCPX (typical sites)
A1 and A2A receptors = conditions: transfected cells; ref Minetti et al., 2005; cited from earlier work

In the case of `CCNC(=O)[C@H]1O[C@@H](n2cnc3c(N)nc(NCCc4ccc(CCC(=O)O)cc4)nc32)[C@H](O)[C@@H]1O` [CGS21680, 2-p-(2-carboxyethyl)phenethyl-amino-5’-N-ethylcarbox-amidoadenosine], the Ki (adenosine A1 receptors) is given as about 3100 nM and the Ki (adenosine A2A receptors) is given as about 22 nM.
For `Cn1c(=O)c2c(nc(C=Cc3cccc(Cl)c3)n2C)n(C)c1=O` [CSC, 8-(3-chlorostyryl)-caffeine], the A2A/A1 selectivity ([1]; ref Jacobson et al., 1993) is given as 520 fold and the “loss of potency in inhibiting [3H]CGS21680 binding in hippocampus and cortex versus striatal membranes” value [2] is given as 10 fold.
In the case of `CCCn1c(=O)c2[nH]c(C3CCCC3)nc2n(CCC)c1=O` [DPCPX, 8-cyclopentyl-1,3-dipropylxanthine], the “effect on [3H]CGS21680 specific binding in hippocampus” value [3] is given as “completely abolished” and the “concentrations displacing most of the [3H]CGS21680 binding in hippocampus and cortex” value ([2]; hippocampus and cortex, not striatum) is given as “low nanomolar concentrations”.
For `CCCn1c(=O)c2c(nc(/C=C/c3ccc(OC)c(OC)c3)n2C)n(CCC)c1=O` [KF17837, (E)-8-(3,4-dimethoxystyryl)-1,3-dipropyl-7-methylxanthine], the A2A/A1 selectivity ([1]; ref Nonaka et al., 1994) is given as 62 fold and the “loss of potency in inhibiting [3H]CGS21680 binding in hippocampus and cortex versus striatal membranes” value [2] is given as 10 fold.
For `CCn1c(=O)c2c(nc(/C=C/c3ccc(OC)c(OC)c3)n2C)n(CC)c1=O` [KW6002, (E)-1,3-diethyl-8-(3,4-dimethoxystyryl)-7-methyl-3,7-dihydro-1H-purine-2,6,dione, reference compound], the Ki [4] was 74.2 nM, the “decrease in affinity for atypical binding sites” value [4] was “decreased from two to five fold” and the “binding in hippocampus in the presence of CSC” value [5] was “no binding”.
In the case of `Nc1nc2c(cnn2CCc2ccccc2)c2nc(-c3ccco3)nn12` [SCH58261, reference compound], the IC50 [6] is reported as 16.7 nM, the Ki [6] is reported as 4.8 nM and the “difference in affinity values between striatum and hippocampus” value [7] is reported as “about 200 fold”.
With `CCCCc1nc(N)c2nc(-n3nccn3)n(C)c2n1` [ST1535, 2 butyl-9-methyl-8-(2H-1,2,3-triazol 2-yl)-9H-purin-6-xylamine] the IC50 ([6]; Figure 1, rat striatum, 30 nmol/L [3H]CGS21680, (95% CI), read-out: IC50) was 79.6 nM, the Ki ([6]; rat striatal membranes, 30 nM [3H]CGS21680, mean (95% CI) of 3-4 experiments, read-out: Ki values (nM) in striatum, Total) was 22.8 nM and the “Hill coefficient, total striatal receptors” value ([6]; striatum, total) was 0.7. The IC50 ([4]; Figure 3, rat striatum, 200 nmol/L CSC, (95% CI)) was 256 nM, the Ki ([4]; rat striatal membranes, in the presence of CSC, mean (95% CI)) was 73 nM and the “decrease in affinity for atypical binding sites” value ([4]; striatum, atypical versus total and typical) was “decreased from two to five fold”. The “concentrations for A2B receptor higher than those for A2A receptors” value (adenosine A2B receptor; ref Stasi et al., 2006) was “about 3 fold”, the IC50 ([5]; Figure 5, rat hippocampus, 200 nmol/L CSC, (95% CI)) was 446 nM and the “binding in hippocampus in the presence of CSC” value ([5]; hippocampus, in the presence of CSC) was “displaced some affinity”. The Ki ([5]; read-out: Ki values (nM) in hippocampus, Atypical, rat hippocampal membranes, in the presence of CSC, mean (95% CI)) was 146 nM, the “Hill Slope” value ([8]; Figure 2, rat striatum, 100 nmol/L DPCPX) was -1.007 and the IC50 ([8]; Figure 2, rat striatum, 100 nmol/L DPCPX, (95% CI)) was 118 nM. For the same compound, the Ki ([8]; rat striatal membranes, in the presence of DPCPX, mean (95% CI)) was 33.7 nM, the “Hill coefficient, typical striatal receptors” value ([8]; striatum, typical) was “around the unit” and the “Hill coefficients in the hippocampus” value ([7]; hippocampus) was 0.6–0.8. For the same compound, the “difference in affinity values between striatum and hippocampus” value ([7]; total A2A binding, hippocampus versus striatum) was “about 5 fold” and the “ratio between A1 and A2A receptors” value (A1 and A2A receptors) was “about 10 fold”.
In the case of `Nc1nc(NCCc2ccc(O)cc2)nc2nc(-c3ccco3)nn12` [ZM241385, reference compound], the “concentrations for A2B receptor higher than those for A2A receptors” value (adenosine A2B receptor; ref Linden et al., 1999) is listed as 22 fold.

Reference: PMC3059644 (Frontiers in Psychiatry, 2010)
